Results as given in US20230331803A1, “CO-AGONISTS OF THE GLP-1 AND AMYLIN RECEPTORS” (priority 2020, published 2023).
Where two headings read alike, the source gives them in different places. Starred links: 1 amine or outer side, 2 acyl side, 3 side chain; linkers in the order of their positions; H or OH if unused. Non-standard residues stand in square brackets, D forms with d. Groups on a side chain read outwards from the residue. *: point of attachment. X1 = O=C(O)CCCCCCCCCCCCCCC(=O)N[C@@H](CCC(=O)NCCOCCOCC(=O)NCCOCCOCC(=O)NCCCC[C@H](NC(=O)COCCOCCNC(=O)COCCOCCNC(=O)CC[C@H](NC(=O)CCCCCCCCCCCCCCC(=O)O)C(=O)O)C(=O)*)C(=O)O; Butyryl(4-SO2NHCO(CH2)16Tz) = O=C(CCCCCCCCCCCCCCCCc1nnn[nH]1)NS(=O)(=O)CCCC(=O)*; Undecanoyl(11-OPh(4-COOH)) = O=C(O)c1ccc(OCCCCCCCCCCC(=O)*)cc1; C20 diacid = O=C(O)CCCCCCCCCCCCCCCCCCC(=O)*; C18 diacid = O=C(O)CCCCCCCCCCCCCCCCC(=O)*; C16 diacid = O=C(O)CCCCCCCCCCCCCCC(=O)*; γGlu = O=C(O)[C@H](CCC(=O)[*:2])N[*:1]; C14 diacid = O=C(O)CCCCCCCCCCCCC(=O)*; εLys = N[C@@H](CCCCN[*:1])C(=O)[*:2]; Trx = NC[C@H]1CC[C@H](C(=O)O)CC1; AEEA = NCCOCCOCC(=O)O; Aib = CC(C)(N)C(=O)O

How the values were obtained:
human GLP-1 receptor = target: T1, human GLP-1 receptor (Homo sapiens, UniProt P43220); assay: Human GLP-1 receptor in vitro potency assay (CRE-luciferase reporter, BHK cells); type: cell-based
T1 construct: expressed in transfected cells; host or cells: BHK (Baby Hamster Kidney) cells, clone BHK 467-12A KZ-10, stably transfected, with CRE-luciferase reporter
Method: It is thus possible to measure GLP-1 receptor activity using a CRE-luciferase reporter gene introduced into Baby Hamster Kidney (BHK) cells co-expressing the GLP-1 receptor.
(§1) Cells were aliquoted and stored at -180° C. until use.
Plates were sealed and incubated at room temperature with gentle shaking for 30 minutes while protected from light. Luminescence was detected on a luminescence plate reader e.g. a Synergy 2 (BioTek).

[1] = target: T2, human amylin receptor (hAmyR3) (Homo sapiens, UniProt O60896+P30988); assay: Human amylin receptor in vitro potency assay (CRE-luciferase reporter, BHK cells); type: cell-based;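 also: BHK cells expressing human calcitonin receptor plus RAMP3 (amylin-3 receptor) with a CRE-luciferase reporter, agonist activity read as luminescence from cAMP-driven transcription, 7-point serial dilutions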
T2 construct: host or cells: BHK cells (Hollex-1 line: human calcitonin receptor (a) + CRE-Luc), further transfected with human RAMP3
From the text: Activation of hAmyR3 leads to increased cellular concentrations of cAMP. Consequently, transcription is activated by promotors containing multiple copies of the cAMP response element (CRE). It is thus possible to measure hAmyR3 activity using a CRE-luciferase reporter gene introduced into Baby Hamster Kidney (BHK) cells co-expressing the hAmyR3.
The cell line was further transfected with human receptor modifying protein 3 (RAMP3) using standard methods. This turns the human calcitonin receptor into a human amylin-3(a) receptor.
as §1
The plate was incubated over night at 37° C. in 5% CO2. On the day of the assay, cells were washed three times in assay buffer. Serial dilutions (7-fold dilutions, 7 concentrations pr. compound and one well containing only assay buffer) of comparator compounds and GLP-1 receptor-amylin receptor co-agonists were performed in assay buffer often starting from approximately 10-100 nM in 96-well plates and 30 µL of each concentration added to the 384-well assay plate with cells. […] The assay plate was sealed, incubated at room temperature with gentle shaking for 5 minutes followed by 30 minutes incubation without shaking while protected from light. Luminescence was detected on a luminescence plate reader e.g. a Synergy 2 (BioTek).

[2] = Table 4a, BHK cells expressing human GLP-1R, CRE-Luc, 3 hours, read-out: Human GLP-1R potency [EC50 (pM)]
[3] = Table 4a, BHK hAmyR3/CRE-Luc cells, 3 hours, read-out: Human AmyR3 potency [EC50 (pM)]

T1 sequence (P43220 24-463): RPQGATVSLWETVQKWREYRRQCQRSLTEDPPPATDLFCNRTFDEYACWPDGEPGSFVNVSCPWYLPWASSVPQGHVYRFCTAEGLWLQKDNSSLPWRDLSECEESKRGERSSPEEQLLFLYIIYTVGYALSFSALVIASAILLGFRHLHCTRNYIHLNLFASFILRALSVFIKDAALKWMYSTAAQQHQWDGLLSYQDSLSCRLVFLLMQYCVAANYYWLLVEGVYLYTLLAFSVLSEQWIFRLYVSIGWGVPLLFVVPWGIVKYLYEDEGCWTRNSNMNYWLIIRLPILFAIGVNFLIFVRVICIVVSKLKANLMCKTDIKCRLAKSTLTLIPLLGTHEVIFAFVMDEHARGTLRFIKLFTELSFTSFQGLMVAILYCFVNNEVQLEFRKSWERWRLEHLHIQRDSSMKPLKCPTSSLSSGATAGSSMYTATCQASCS
T2 sequence (P30988 25-474): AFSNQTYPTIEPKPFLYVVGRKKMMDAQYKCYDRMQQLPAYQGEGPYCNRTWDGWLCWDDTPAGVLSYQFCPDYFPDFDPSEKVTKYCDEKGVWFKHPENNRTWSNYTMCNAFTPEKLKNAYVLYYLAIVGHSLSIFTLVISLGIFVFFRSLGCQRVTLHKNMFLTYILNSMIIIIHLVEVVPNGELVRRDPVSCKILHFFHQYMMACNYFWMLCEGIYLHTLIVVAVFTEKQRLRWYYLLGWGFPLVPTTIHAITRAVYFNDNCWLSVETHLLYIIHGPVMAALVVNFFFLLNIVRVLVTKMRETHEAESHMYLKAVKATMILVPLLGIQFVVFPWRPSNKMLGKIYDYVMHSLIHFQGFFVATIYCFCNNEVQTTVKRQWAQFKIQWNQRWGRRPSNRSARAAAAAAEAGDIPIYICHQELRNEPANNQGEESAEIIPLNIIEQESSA
T2 sequence (O60896 24-148): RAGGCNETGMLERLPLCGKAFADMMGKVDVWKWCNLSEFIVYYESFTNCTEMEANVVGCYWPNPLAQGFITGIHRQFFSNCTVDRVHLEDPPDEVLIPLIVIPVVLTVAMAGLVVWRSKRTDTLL

| Substance | EC50 (human GLP-1 receptor; [2]) | EC50 [1, 3] | other results |
| --- | --- | --- | --- |
| H-Aib-EGTFTSDVSSYLEGQAA-K([2-[2-[2-[[2-[2-[2-[[(4S)-4-Carboxy-4-(17-Carboxyheptadecanoylamino)Butanoyl]Amino]Ethoxy]Ethoxy]Acetyl]Amino]Ethoxy]Ethoxy]Acetyl])-EFIAWLVRGRGGQEPGQEPCNTATCATQRLAEFLRHSSNNFGPILPPTNVGSNTP-amide [Comparator compound 0015, reference compound] |  |  | EC50 (human GLP-1 receptor; read-out: Human GLP-1 R potency [EC50 (pM)], Table 4c, further comparator compounds): 45 pM; EC50 ([1]; Table 4c, further comparator compounds, read-out: Human AmyR3 potency [EC50 (pM)]): 312 pM; Ability to agonise the amylin receptor, in words ([1]; Tables 4a-4c): poor agonist of the amylin receptor |
| H-HAEGTFTSDK([AEEA-AEEA-γGlu-C16 diacid])SSYLEEK([AEEA-AEEA-γGlu-C16 diacid])AAREFIEWLVRGRGEASELSTAALGRLSAELHELATLPRTETGSGSP-NH2 [Compound 0475] | 70.4 pM | 66.8 pM |  |
| H-HAEGTFTSDVSK([AEEA-AEEA-γGlu-C16 diacid])YLEEQAVREFIAK([AEEA-AEEA-γGlu-C16 diacid])LVRGRGGGEASELSTAALGRLSAELHELATLPRTETGSGSP-NH2 [Compound 0482] | 36.5 pM | 31.8 pM |  |
| H-HAEGTFTSDVSSYLEEK([AEEA-AEEA-γGlu-C20 diacid])AAREFIEWLVRGRGEASELSTAALGRLSAELHELATLPRTETGSGSP-NH2 [Compound 0474] | 2.9 pM | 21.8 pM |  |
| H-HAEGTFTSDVSSYLEEK([AEEA-AEEA-γGlu-Trx-C20 diacid])AAREFIEWLVRGRGEASELSTAALGRLSAELHELATLPRTETGSGSP-NH2 [Compound 0414] | 11.2 pM | 17.7 pM |  |
| H-HGEGTFTSDVSSYLEEQAARK([AEEA-AEEA-γGlu-C14 diacid])FIEWLVRGK([AEEA-AEEA-γGlu-C14 diacid])GEASELSTAALGRLSAELHELATLPRTETGSGSP-NH2 [Compound 0039] | 34.8 pM | 59.5 pM |  |
| H-HGEGTFTSDVSSYLEEQAARK([AEEA-AEEA-γGlu-C16 diacid])FIEWLVRGK([AEEA-AEEA-γGlu-C16 diacid])GEGGEASELSTAALGRLSAELHELATLPRTETGSGSP-NH2 [Compound 0087] | 23.8 pM | 97.9 pM |  |
| H-HGEGTFTSDVSSYLEEQAARK([AEEA-AEEA-γGlu-C18 diacid])FIEWLVRGK([AEEA-AEEA-γGlu-C18 diacid])GEGGEASELSTAALGRLSAELHELATLPRTETGSGSP-NH2 [Compound 0090] | 32.6 pM | 70.9 pM |  |
| H-HWEGTFTSDVSSYLEEQAARK([AEEA-AEEA-γGlu-Undecanoyl(11-OPh(4-COOH))])FIEWLVRGRGEGGGGGASELSTAALGRLSK([AEEA-AEEA-γGlu-Undecanoyl(11-OPh(4-COOH))])ELHELATLPRTETGSGSP-NH2 [Compound 0255] |  |  | EC50 (human GLP-1 receptor): 2.5 pM; EC50 [1]: 28.6 pM |
| H-H[Aib]EGTFTSDK([AEEA-AEEA-γGlu-C16 diacid])SSYLEEQAAREFIAWLVRGRGGGGGEASELSTAALGRLSAELHELATLK([AEEA-AEEA-γGlu-C16 diacid])RTETGSGSP-NH2 [Compound 0261] | 17.4 pM | 23.9 pM |  |
| H-H[Aib]EGTFTSDK([AEEA-AEEA-γGlu-C16 diacid])SSYLEEQAAREFIAWLVRGRGGGGGEASELSTAALGRLSAELHELK([AEEA-AEEA-γGlu-C16 diacid])TLPRTETGSGSP-NH2 [Compound 0260] | 11.9 pM | 41.8 pM |  |
| H-H[Aib]EGTFTSDVSK([AEEA-AEEA-γGlu-C14 diacid])YLEEQAVREFIAK([AEEA-AEEA-γGlu-C14 diacid])LVRGRGGGEASELSTAALGRLSAELHELATLPRTETGSGSP-NH2 [Compound 0484] | 72.8 pM | 32.5 pM |  |
| H-H[Aib]EGTFTSDVSK([AEEA-AEEA-γGlu-C16 diacid])YLEEQAARK([AEEA-AEEA-γGlu-C16 diacid])FIEWLVRGAAEASELSTAALGRLSAELHELATLPRTETGSGSP-NH2 [Compound 0629] | 7.9 pM | 97.5 pM |  |
| H-H[Aib]EGTFTSDVSK([AEEA-AEEA-γGlu-C16 diacid])YLEEQAVREFIAK([AEEA-AEEA-γGlu-C16 diacid])LVRGRGGGEASELSTAALGRLSAELHELATLPRTETGSGSP-NH2 [Compound 0483] | 33.7 pM | 36.8 pM |  |
| H-H[Aib]EGTFTSDVSK([AEEA-X1])YLEEQAAREFIAWLVRGRGGGGGEASELSTAALGRLSAELHELATLPRTETGSGSP-NH2 [Compound 0564] | 24.5 pM | 14.5 pM |  |
| H-H[Aib]EGTFTSDVSK([γGlu-γGlu-γGlu-γGlu-C16 diacid])YLEEQAARK([γGlu-γGlu-γGlu-γGlu-C16 diacid])FIAWLVRGRGEASELSTAALGRLSAELHELATLPRTETGSGSP-NH2 [Compound 0634] | 14.7 pM | 59.4 pM |  |
| H-H[Aib]EGTFTSDVSK([γGlu-γGlu-γGlu-γGlu-C20 diacid])YLEEQAAREFIEWLVRGAAEASELSTAALGRLSAELHELATLPRTETGSGSP-NH2 [Compound 0632] | 18.8 pM | 148 pM |  |
| H-H[Aib]EGTFTSDVSSYLEEK([AEEA-AEEA-γGlu-C16 diacid])AAREFIAWLVRGRGGGGGASELSTAALGRLSK([AEEA-AEEA-γGlu-C16 diacid])ELHELATLPRTETGSGSP-NH2 [Compound 0295] | 4.8 pM | 32.7 pM |  |
| H-H[Aib]EGTFTSDVSSYLEEK([AEEA-AEEA-γGlu-C16 diacid])AAREFIAWLVRGRGGGGGEASELSTAALGRLSAELHELATLK([AEEA-AEEA-γGlu-C16 diacid])RTETGSGSP-NH2 [Compound 0397] | 3.8 pM | 18.5 pM |  |
| H-H[Aib]EGTFTSDVSSYLEEK([AEEA-AEEA-γGlu-C16 diacid])AAREFIAWLVRGRGGGGGEASELSTAALGRLSAELHELK([AEEA-AEEA-γGlu-C16 diacid])TLPRTETGSGSP-NH2 [Compound 0396] | 4.8 pM | 32.8 pM |  |
| H-H[Aib]EGTFTSDVSSYLEEK([AEEA-AEEA-γGlu-C16 diacid])AAREFIAWLVRGRGGGGGEASELSTAALGRLSAELHK([AEEA-AEEA-γGlu-C16 diacid])LATLPRTETGSGSP-NH2 [Compound 0299] | 6 pM | 11.5 pM |  |
| H-H[Aib]EGTFTSDVSSYLEEQAAREFIAWLVK([AEEA-AEEA-γGlu-C18 diacid])GRGGGGGEASELSTAALGRLSAELHELATLPRTETGSGSP-NH2 [Compound 0144] | 7.1 pM | 16.8 pM |  |
| H-H[Aib]EGTFTSDVSSYLEEQAAREFIAWLVRGK([AEEA-AEEA-γGlu-C16 diacid])GGGGGEASELSTAALGRLSAELHELATLK([AEEA-AEEA-γGlu-C16 diacid])RTETGSGSP-NH2 [Compound 0284] | 41.7 pM | 32.8 pM |  |
| H-H[Aib]EGTFTSDVSSYLEEQAAREFIAWLVRGK([AEEA-AEEA-γGlu-C16 diacid])GGGGGEASELSTAALGRLSAELHELATLPRTETGK([AEEA-AEEA-γGlu-C16 diacid])GSP-NH2 [Compound 0285] | 19 pM | 78.9 pM |  |

Second part, led by results:

| EC50 (human GLP-1 receptor; [2]) | EC50 [1, 3] | Substance | other results |
| --- | --- | --- | --- |
| 12 pM | 11.8 pM | H-HWEGTFTSDVSSYLEEQAARK([εLys-AEEA-AEEA-γGlu-Trx-C20 diacid])FIEWLVRGRGEASELSTAALGRLSAELHELATLPRTETGSGSP-NH2 [Compound 0437] |  |
| 35.2 pM | 114 pM | H-H[Aib]EGTFTSDVSSYLEEQAAREFIAWLVRGK([AEEA-AEEA-γGlu-C16 diacid])GGGGGEASELSTAALGRLSAELHELK([AEEA-AEEA-γGlu-C16 diacid])TLPRTETGSGSP-NH2 [Compound 0281] |  |
| 34.3 pM | 18 pM | H-H[Aib]EGTFTSDVSSYLEEQAAREFIAWLVRGK([AEEA-AEEA-γGlu-C16 diacid])GGGGGEASELSTAALGRLSAELHK([AEEA-AEEA-γGlu-C16 diacid])LATLPRTETGSGSP-NH2 [Compound 0280] |  |
| 3 pM | 34.9 pM | H-H[Aib]EGTFTSDVSSYLEEQAAREFIAWLVRGK([AEEA-AEEA-γGlu-C18 diacid])GGEASELSTAALGRLSAELHELATLPRTETGSGSP-NH2 [Compound 0132] |  |
| 11.9 pM | 16.5 pM | H-H[Aib]EGTFTSDVSSYLEEQAAREFIAWLVRGRGK(Butyryl(4-SO2NHCO(CH2)16Tz))GGGASELSTAALGRLSAELHELATLPRTETGSGSP-NH2 [Compound 0145] |  |
| 14.7 pM | 9.8 pM | H-H[Aib]EGTFTSDVSSYLEEQAAREFIAWLVRGRK(Butyryl(4-SO2NHCO(CH2)16Tz))ELSTAALGRLSAELHELATLPRTETGSGSP-NH2 [Compound 0102] |  |
| 3 pM | 14.6 pM | H-H[Aib]EGTFTSDVSSYLEEQAAREFIAWLVRGRK([AEEA-AEEA-AEEA-AEEA-γGlu-C18 diacid])GGGGEASELSTAALGRLSAELHELATLPRTETGSGSP-NH2 [Compound 0662] |  |
| 3.2 pM | 12.6 pM | H-H[Aib]EGTFTSDVSSYLEEQAAREFIAWLVRGRK([AEEA-AEEA-AEEA-AEEA-γGlu-C20 diacid])GGGGEASELSTAALGRLSAELHELATLPRTETGSGSP-NH2 [Compound 0663] |  |
| 2.8 pM | 14.4 pM | H-H[Aib]EGTFTSDVSSYLEEQAAREFIAWLVRGRK([AEEA-AEEA-AEEA-γGlu-C18 diacid])GGGGEASELSTAALGRLSAELHELATLPRTETGSGSP-NH2 [Compound 0661] |  |
| 2.2 pM | 22.8 pM | H-H[Aib]EGTFTSDVSSYLEEQAAREFIAWLVRGRK([AEEA-AEEA-γGlu-C18 diacid])EASELSTAALGRLSAELHELATLPRTETGSGSP-NH2 [Compound 0115] |  |
| 1 pM | 17.5 pM | H-H[Aib]EGTFTSDVSSYLEEQAAREFIAWLVRGRK([AEEA-AEEA-γGlu-C18 diacid])GGEASELSTAALGRLSAELHELATLPRTETGSGSP-NH2 [Compound 0114] |  |
